According to patent US10407409B2, “6-(5-hydroxy-1H-pyrazol-1-yl)nicotinamide inhibitors of PHD” (Takeda Pharmaceutical Company Limited, priority 2013, dated 2019):

Assays:
[1] = molecular target: PHD2 enzyme (residues 181-417) (Homo sapiens (Human), UniProt Q9GZT9); assay: Inhibition of PHD enzyme (LC/MS peptide hydroxylation assay); assay type: biochemical; settings: PHD2 (residues 181-417) 5 nM, 60 min pre-incubation, -log(IC50), IC50 molar; for IC50: read-out: PHD Inhibition (pIC50) (converted)
Chain of PHD2 enzyme (residues 181-417) (Q9GZT9 181-417): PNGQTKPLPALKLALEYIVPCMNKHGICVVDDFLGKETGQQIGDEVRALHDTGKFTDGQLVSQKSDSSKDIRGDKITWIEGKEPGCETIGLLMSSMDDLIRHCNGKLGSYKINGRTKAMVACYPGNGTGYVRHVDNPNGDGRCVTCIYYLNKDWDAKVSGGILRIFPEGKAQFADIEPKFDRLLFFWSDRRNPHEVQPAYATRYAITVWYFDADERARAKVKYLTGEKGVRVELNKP
Outline: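 PHD2 (5 nM final) preincubated with inhibitor 60 min at RT in 50 mM HEPES, 50 mM KCl, 0.5 mM TCEP, 2 uM FeCl2, 0.1 mg/ml BSA, pH 7.3. Reaction started with biotin-peptide (1 uM), 2-oxoglutarate (2 uM), ascorbate (1 mM), quenched at 60 min; hydroxylated product by LC/MS, reported as pIC50.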

[2] = tested on: HIF1a protein in H9c2 rat cardiomyocytes; assay: Cell-based HIF-alpha stabilization assay (inhibition of PHD in cells); settings: 24 hrs compound incubation, HIF1a protein by ELISA; for EC50: Rattus norvegicus, H9c2, 24 h, read-out: Inhibition of PHD in cells (pEC50) (converted)
Outline: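 Rat H9c2 cardiomyocytes, cultured 24 h, were treated 24 h with an 11-point serial dilution of compound. HIF1a in whole-cell lysates was quantified by ELISA as % of the maximal desferrioxamine response. EC50 came from curve fitting; EC50pos is the concentration reaching 50% of the desferrioxamine maximum.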

SMILES	IC50 [1]	PHD Inhibition (pIC50) [1]	EC50 [2]	Inhibition of PHD in cells (pEC50) [2]
COCCCNC(=O)c1ccc(-n2ncc(-c3cc(F)c(C#N)cc3C)c2O)nc1 [Example 405, 6-(4-(4-cyano-5-fluoro-2-methylphenyl)-5-hydroxy-1H-pyrazol-1-yl)-N-(3-methoxypropyl)nicotinamide]		8.48	324 nM	
Cc1cc(C#N)ccc1-c1cnn(-c2ccc(C(=O)NCCC3CCCCO3)cn2)c1O (stereo not drawn) [Example 206, 6-(4-(4-cyano-2-methylphenyl)-5-hydroxy-1H-pyrazol-1-yl)-N-(2-(tetrahydro-2H-pyran-2-yl)ethyl)nicotinamide]		8.2	110 nM	
COCC1(CNC(=O)c2ccc(-n3ncc(-c4ccnc(OC)c4)c3O)nc2)CC1 [Example 14, 6-(5-hydroxy-4-(2-methoxypyridin-4-yl)-1H-pyrazol-1-yl)-N-((1-(methoxymethyl)cyclopropyl)methyl)nicotinamide]		7.27	871 nM	
CCN(C)CC1CCN(C(=O)c2ccc(-n3ncc(-c4ccc(C#N)cc4C)c3O)nc2)C1 (racemic) [Example 295, (+/−)-4-(1-(5-(3-((ethyl(methyl)amino)methyl)pyrrolidine-1-carbonyl)pyridin-2-yl)-5-hydroxy-1H-pyrazol-4-yl)-3-methylbenzonitrile]	14.1 nM		339 nM	
Cc1cc(C#N)c(F)cc1-c1cnn(-c2ccc(C(=O)N3CCN(C)[C@@H](C)C3)cn2)c1O [Example 400, (S)-4-(1-(5-(3,4-dimethylpiperazine-1-carbonyl)pyridin-2-yl)-5-hydroxy-1H-pyrazol-4-yl)-2-fluoro-5-methylbenzonitrile]		8.50	1660 nM	
N#Cc1ccc(-c2cnn(-c3ccc(C(=O)NCCC4CC4)cn3)c2O)cc1 [Example 53, 6-(4-(4-cyanophenyl)-5-hydroxy-1H-pyrazol-1-yl)-N-(2-cyclopropylethyl)nicotinamide]		7.03	525 nM	
COc1cc(-c2cnn(-c3ccc(C(=O)NCC4CCCCO4)cn3)c2O)ccn1 (stereo not drawn) [Example 48, 6-(5-hydroxy-4-(2-methoxypyridin-4-yl)-1H-pyrazol-1-yl)-N-((tetrahydro-2H-pyran-2-yl)methyl)nicotinamide]		8	646 nM	
COCCCNC(=O)c1ccc(-n2ncc(-c3cc(C)c(C#N)cc3C)c2O)nc1 [Example 403, 6-(4-(4-cyano-2,5-dimethylphenyl)-5-hydroxy-1H-pyrazol-1-yl)-N-(3-methoxypropyl)nicotinamide]		7.78	1860 nM	
N#Cc1ccc(-c2cnn(-c3ccc(C(=O)N4CCC(N5CCOCC5)C4)cn3)c2O)cc1 (stereo not drawn) [Example 351, 4-(5-hydroxy-1-(5-(3-morpholinopyrrolidine-1-carbonyl)pyridin-2-yl)-1H-pyrazol-4-yl)benzonitrile]		7.67	5370 nM	
CCCN1CCC(NC(=O)c2ccc(-n3ncc(-c4ccnc(OC)c4)c3O)nc2)CC1 [Example 24, 6-(5-hydroxy-4-(2-methoxypyridin-4-yl)-1H-pyrazol-1-yl)-N-(1-propylpiperidin-4-yl)nicotinamide]		7.04	10700 nM	
CO[C@H]1CC[C@@H](NC(=O)c2ccc(-n3ncc(-c4ccc(C#N)cc4F)c3O)nc2)CC1 [Example 284, 6-(4-(4-cyano-2-fluorophenyl)-5-hydroxy-1H-pyrazol-1-yl)-N-((1 s,4s)-4-methoxycyclohexyl)nicotinamide]		8.21	1290 nM	
N#Cc1ccc(-c2cnn(-c3ccc(C(=O)N[C@H]4CC[C@@H](O)C4)cn3)c2O)cc1 [Example 258, 6-(4-(4-cyanophenyl)-5-hydroxy-1H-pyrazol-1-yl)-N-((1s,3r)-3-hydroxycyclopentyl)nicotinamide]		7.44	813 nM	
COc1cc(-c2cnn(-c3ccc(C(=O)NCCC4CCCN4C)cn3)c2O)ccn1 (stereo not drawn) [Example 31, 6-(5-hydroxy-4-(2-methoxypyridin-4-yl)-1H-pyrazol-1-yl)-N-(2-(1-methylpyrrolidin-2-yl)ethyl)nicotinamide]		7.5		6.00
COc1cc(-c2cnn(-c3ccc(C(=O)N[C@H]4CC[C@@H](O)CC4)cn3)c2O)ccn1 [Example 166, 6-(5-hydroxy-4-(2-methoxypyridin-4-yl)-1H-pyrazol-1-yl)-N-((1s,4s)-4-hydroxycyclohexyl)nicotinamide]		7.28	437 nM	
Cc1cc(C#N)ccc1-c1cnn(-c2ccc(C(=O)N(C)C3CCN(C4CC4)CC3)cn2)c1O [Example 296, 6-(4-(4-cyano-2-methylphenyl)-5-hydroxy-1H-pyrazol-1-yl)-N-(1-cyclopropylpiperidin-4-yl)-N-methylnicotinamide]		8.23	1000 nM	

Second part, led by results:

IC50 [1]	PHD Inhibition (pIC50) [1]	SMILES	EC50 [2]	Inhibition of PHD in cells (pEC50) [2]
174 nM		COCCCNC(=O)c1ccc(-n2ncc(-c3cc(C)nc(OC)c3)c2O)nc1 [Example 214, 6-(5-hydroxy-4-(2-methoxy-6-methylpyridin-4-yl)-1H-pyrazol-1-yl)-N-(3-methoxypropyl)nicotinamide]	2820 nM	
	7.03	CCCNC(=O)c1ccc(-n2ncc(-c3ccnc(OC)c3)c2O)nc1 [Example 8, 6-(5-hydroxy-4-(2-methoxypyridin-4-yl)-1H-pyrazol-1-yl)-N-propylnicotinamide]	603 nM	
	8.1	COC1CN(C(=O)c2ccc(-n3ncc(-c4ccc(C#N)cc4C)c3O)nc2)C1 [Example 184, 4-(5-hydroxy-1-(5-(3-methoxyazetidine-1-carbonyl)pyridin-2-yl)-1H-pyrazol-4-yl)-3-methylbenzonitrile]	214 nM	
	7.15	CC(C)NC(=O)c1ccc(-n2ncc(-c3ccc(C#N)cc3)c2O)nc1 [Example 159, 6-(4-(4-cyanophenyl)-5-hydroxy-1H-pyrazol-1-yl)-N-isopropylnicotinamide]	912 nM	
	8.16	COCCC1(NC(=O)c2ccc(-n3ncc(-c4ccc(C#N)cc4C)c3O)nc2)CCCC1 [Example 356]	977 nM	
	7.03	N#Cc1ccc(-c2cnn(-c3ccc(C(=O)NCC(F)(F)F)cn3)c2O)cc1 [Example 77, 6-(4-(4-cyanophenyl)-5-hydroxy-1H-pyrazol-1-yl)-N-(2,2,2-trifluoroethyl)nicotinamide]	1260 nM	
	8.3	COC1CCN(C(=O)c2ccc(-n3ncc(-c4ccc(C#N)cc4C)c3O)nc2)CC1 [Example 249, 4-(5-hydroxy-1-(5-(4-methoxypiperidine-1-carbonyl)pyridin-2-yl)-1H-pyrazol-4-yl)-3-methylbenzonitrile]	275 nM	
	7.24	CC(C)OCCNC(=O)c1ccc(-n2ncc(-c3ccc(C#N)cc3)c2O)nc1 [Example 89, 6-(4-(4-cyanophenyl)-5-hydroxy-1H-pyrazol-1-yl)-N-(2-isopropoxyethyl)nicotinamide]	708 nM	
	8.39	Cc1cc(C#N)ccc1-c1cnn(-c2ccc(C(=O)N3CC(N(C)C4CCC4)C3)cn2)c1O [Example 297, 4-(1-(5-(3-(cyclobutyl(methyl)amino)azetidine-1-carbonyl)pyridin-2-yl)-5-hydroxy-1H-pyrazol-4-yl)-3-methylbenzonitrile]	525 nM	
	7.8	CN1CCOC(CNC(=O)c2ccc(-n3ncc(-c4ccc(C#N)cc4)c3O)nc2)C1 (stereo not drawn) [Example 111, 6-(4-(4-cyanophenyl)-5-hydroxy-1H-pyrazol-1-yl)-N-((4-methylmorpholin-2-yl)methyl)nicotinamide]	2140 nM	
	7.9	COCC(C)CNC(=O)c1ccc(-n2ncc(-c3ccnc(OC)c3)c2O)nc1 (stereo not drawn) [Example 49, 6-(5-hydroxy-4-(2-methoxypyridin-4-yl)-1H-pyrazol-1-yl)-N-(3-methoxy-2-methylpropyl)nicotinamide]	871 nM	
	7.8	Cc1cc(C#N)ccc1-c1cnn(-c2ccc(C(=O)NC3CN(C)C3)cn2)c1O [Example 186, 6-(4-(4-cyano-2-methylphenyl)-5-hydroxy-1H-pyrazol-1-yl)-N-(1-methylazetidin-3-yl)nicotinamide]	295 nM	
	8.52	CCN1CCN(C(=O)c2ccc(-n3ncc(-c4cc(F)c(C#N)cc4C)c3O)nc2)C[C@@H]1C [Example 397, (S)-4-(1-(5-(4-ethyl-3-methylpiperazine-1-carbonyl)pyridin-2-yl)-5-hydroxy-1H-pyrazol-4-yl)-2-fluoro-5-methylbenzonitrile]	1620 nM	
	8.50	Cc1c(-c2cnn(-c3ccc(C(=O)N4CCN(C)[C@@H](C)C4)cn3)c2O)ccc(C#N)c1F [Example 329, (S)-4-(1-(5-(3,4-dimethylpiperazine-1-carbonyl)pyridin-2-yl)-5-hydroxy-1H-pyrazol-4-yl)-2-fluoro-3-methylbenzonitrile]	331 nM	
	8.41	CCCN1CCN(C(=O)c2ccc(-n3ncc(-c4ccc(C#N)cc4C)c3O)nc2)CC1 [Example 415, 4-(5-hydroxy-1-(5-(4-propylpiperazine-1-carbonyl)pyridin-2-yl)-1H-pyrazol-4-yl)-3-methylbenzonitrile]		6.20
